We go through 4 compounds from patent US8119588B2, “Hard surface cleaner compositions of sulfonated estolides and other derivatives of fatty acids and uses thereof” (Stepan Company, priority 2009, dated 2012).

Data set [1] in a line: Surface activity by Kruss K12 tensiometer. Particulars: 25° C. in deionized water. In kind it is physicochemical. The procedure:
The surface activity was measured using a Kruss K12 tensiometer at 25° C. in deionized water. The critical micelle concentration (CMC) and the surface tension at CMC are important properties for a surfactant. CMC indicates the minimum concentration of a surfactant that forms aggregates. […] The surface tension indicates how efficient a surfactant can reduce the surface energy of water. Lower surface tension is favorable for wetting and cleansing.

Data set [2] in a line: Coupling ability (hydrotrope requirement) with nonionic surfactants of different HLB. The class given is physicochemical. Here is the method: Sodium xylene sulfonate (SXS) is often used as a hydrotrope to clarify cloudy formulations. […] In Table 2, the measurement of the amount of hydrotrope or surfactant needed to clear the solution was determined.
The compositions described in Table 2 are made in accordance with the following steps: • Add the water and trisodium citrate and mix until the solution is clear. Add BIO-SOFT® N25-9 slowly until the solution is homogeneous. Add BIO-SOFT® N25-3 and mix until the solution is homogeneous. If the final solution is cloudy, then continue adding the hydrotrope or surfactant and agitate until solution is clear.

Consider `CCCCCCCCCCCCOS(=O)(=O)[O-].[Na+]` [STEPANOL WA-EXTRA, Sodium Lauryl Sulfate], for which, in data set [1], the CMC is recorded as 184.8 mg/L and the “Surface Tension @CMC” value came to 26.3 mN/m.
The like results for “Sodium Laureth Sulfate, 2EO [STEOL CS-230]” were, in that order, 171 mg/L and 25 mN/m.
The like results for “Sodium Laureth Sulfate, 3EO [STEOL CS-330]” were, in that order, 75 mg/L and 30 mN/m.
Turning to Sodium xylene sulfonate [SXS], the Final appearance result in data set [2] (after adding hydrotrope or surfactant to cloudy nonionic blend) is reported as “clear”. In addition, in data set [2] (amount needed to clear blend of 5% Bio-soft N25-9, 5% Bio-Soft N25-3, 1% trisodium citrate), the “hydrotrope requirement (actives)” value was 5.3 % actives.
